Source: US4265885A, “Anthracyclines containing branched-chain amino-deoxy sugars” (Farmitalia Carlo Erba S.p.A., priority 1978, dated 1981)
In brackets after ≈: the same amount, converted by molar mass. Like-named read-outs stand apart in the source and are kept apart here.

Columns and labels:
[1] = test system: HeLa cells; assay: Activity on HeLa cells viability in vitro; format: cell-based; conditions: Homo sapiens, read-out: ID50 (Inhibiting Dose 50%)
[2] = Toxic deaths in mice treated in the P 388 leukemia test; format: in vivo; conditions: as hydrochloride
Description: (§1) The new anthracycline glycosides described in the invention, display antitumor activity. The compounds have been tested against HeLa cells "in vitro" (time of exposure to the drugs: 24 hours) and on P 388 leukemia in mice in comparison with daunorubicin and doxorubicin. The results of the "in vitro" tests, shown in Table I are reported as ID50 (Inhibiting Dose 50% in ng/ml).
(§2) The antitumor activity was tested "in vivo" on P 388 leukemia in comparison with daunorubicin and doxorubicin.
(§3) ^(a) Mice were treated i.p. on day 1 after tumor cell inoculation.

[3] = test system: P 388 leukemia; assay: Activity against P 388 leukemia in mice (survival); format: in vivo; conditions: as hydrochloride
Description: as §1, §2, §3
^(b) Median survival time of treated mice, over median survival time

[4] = HeLa cells viability in vitro, time of exposure to the drugs: 24 hours, compounds as hydrochloride
[5] = dose 4.4 mg/kg i.p. on day 1 after tumor cell inoculation
[6] = dose 6.6 mg/kg i.p. on day 1 after tumor cell inoculation
[7] = dose 10.0 mg/kg i.p. on day 1 after tumor cell inoculation
[8] = dose 22.5 mg/kg i.p. on day 1 after tumor cell inoculation
[9] = dose 2.9 mg/kg i.p. on day 1 after tumor cell inoculation
[10] = dose 33.7 mg/kg i.p. on day 1 after tumor cell inoculation
[11] = dose 50.5 mg/kg i.p. on day 1 after tumor cell inoculation

COc1cccc2c1C(=O)c1c(O)c3c(c(O)c1C2=O)C[C@@](O)(C(=O)CO)C[C@@H]3O[C@H]1C[C@H](N)[C@](C)(OC)[C@H](C)O1 [4'-C-Methyl-4'-O-methyl-adriamycin]
IC50 [1, 4]: 0.005 mg/L (≈ 0.00875 µM) | No. of toxic deaths/total [2, 5]: 0/10 | No. of toxic deaths/total [2, 6]: 0/10 | No. of toxic deaths/total [2, 7]: 2/17 | T/C (median survival time of treated mice over median survival time of control × 100) [3, 5]: 165% | T/C (median survival time of treated mice over median survival time of control × 100) [3, 6]: 172% | T/C (median survival time of treated mice over median survival time of control × 100) [3, 7]: 202%

COc1cccc2c1C(=O)c1c(O)c3c(c(O)c1C2=O)C[C@@](O)(C(=O)CO)C[C@@H]3O[C@H]1C[C@H](N)[C@H](O)[C@H](C)O1 [Doxorubicin, reference compound]
IC50 ([1]; HeLa, 24 h): 0.01 mg/L (≈ 0.0184 µM) | No. of toxic deaths/total [2, 5]: 0/28 | No. of toxic deaths/total [2, 6]: 0/28 | No. of toxic deaths/total [2, 7]: 5/28 | T/C (median survival time of treated mice over median survival time of control × 100) [3, 5]: 190% | T/C (median survival time of treated mice over median survival time of control × 100) [3, 6]: 201% | T/C (median survival time of treated mice over median survival time of control × 100) [3, 7]: 241%

COc1cccc2c1C(=O)c1c(O)c3c(c(O)c1C2=O)C[C@@](O)(C(C)=O)C[C@@H]3O[C@H]1C[C@H](N)[C@@](C)(OC)[C@H](C)O1 [4'-Epi-4'-C-methyl-4'-O-methyl-daunomycin]
IC50 [1, 4]: 0.0025 to 0.0034 mg/L (≈ 0.0045 to 0.00612 µM) | No. of toxic deaths/total [2, 6]: 0/8 | No. of toxic deaths/total [2, 7]: 0/8 | No. of toxic deaths/total [2, 8]: 0/8 | T/C (median survival time of treated mice over median survival time of control × 100) [3, 6]: 140% | T/C (median survival time of treated mice over median survival time of control × 100) [3, 7]: 147% | T/C (median survival time of treated mice over median survival time of control × 100) [3, 8]: 150%

COc1cccc2c1C(=O)c1c(O)c3c(c(O)c1C2=O)C[C@@](O)(C(=O)CO)C[C@@H]3O[C@H]1C[C@H](N)[C@@](C)(OC)[C@H](C)O1 [4'-Epi-4'-C-methyl-4'-O-methyl-adriamycin]
IC50 [1, 4]: 0.027 mg/L (≈ 0.0472 µM) | No. of toxic deaths/total [2, 5]: 0/8 | No. of toxic deaths/total [2, 6]: 0/8 | No. of toxic deaths/total [2, 7]: 0/8 | T/C (median survival time of treated mice over median survival time of control × 100) [3, 5]: 165% | T/C (median survival time of treated mice over median survival time of control × 100) [3, 6]: 185% | T/C (median survival time of treated mice over median survival time of control × 100) [3, 7]: 205%

COc1cccc2c1C(=O)c1c(O)c3c(c(O)c1C2=O)C[C@@](O)(C(C)=O)C[C@@H]3O[C@H]1C[C@H](N)[C@H](O)[C@H](C)O1 [Daunorubicin, reference compound]
IC50 ([1]; HeLa, 24 h): 0.01 mg/L (≈ 0.019 µM) | No. of toxic deaths/total [2, 9]: 0/48 | No. of toxic deaths/total [2, 5]: 3/48 | No. of toxic deaths/total [2, 6]: 28/48 | T/C (median survival time of treated mice over median survival time of control × 100) [3, 9]: 163% | T/C (median survival time of treated mice over median survival time of control × 100) [3, 5]: 161% | T/C (median survival time of treated mice over median survival time of control × 100) [3, 6]: 156%

COc1cccc2c1C(=O)c1c(O)c3c(c(O)c1C2=O)C[C@@](O)(C(C)=O)C[C@@H]3O[C@H]1C[C@H](N)[C@](C)(OC)[C@H](C)O1 [4'-C-methyl-4'-O-methyl-daunorubicin (V), 4'-C-Methyl-4'-O-methyl-daunomycin]
IC50 [1, 4]: 0.034 mg/L (≈ 0.0612 µM) | No. of toxic deaths/total [2, 6]: 0/18 | No. of toxic deaths/total [2, 8]: 0/20 | No. of toxic deaths/total [2, 10]: 0/26 | No. of toxic deaths/total [2, 11]: 1/5 | T/C (median survival time of treated mice over median survival time of control × 100) [3, 6]: 140% | T/C (median survival time of treated mice over median survival time of control × 100) [3, 8]: 155% | T/C (median survival time of treated mice over median survival time of control × 100) [3, 10]: 150% | T/C (median survival time of treated mice over median survival time of control × 100) [3, 11]: 137%
